Molecules are shown by their SMILES.

This experiment deals with T1, FLuc-C-HiBiT (Photinus pyralis, UniProt P08659).
T1 construct: firefly luciferase with C-terminal HiBiT tag, E. coli expressed
T1 sequence (P08659 whole entry, looked up): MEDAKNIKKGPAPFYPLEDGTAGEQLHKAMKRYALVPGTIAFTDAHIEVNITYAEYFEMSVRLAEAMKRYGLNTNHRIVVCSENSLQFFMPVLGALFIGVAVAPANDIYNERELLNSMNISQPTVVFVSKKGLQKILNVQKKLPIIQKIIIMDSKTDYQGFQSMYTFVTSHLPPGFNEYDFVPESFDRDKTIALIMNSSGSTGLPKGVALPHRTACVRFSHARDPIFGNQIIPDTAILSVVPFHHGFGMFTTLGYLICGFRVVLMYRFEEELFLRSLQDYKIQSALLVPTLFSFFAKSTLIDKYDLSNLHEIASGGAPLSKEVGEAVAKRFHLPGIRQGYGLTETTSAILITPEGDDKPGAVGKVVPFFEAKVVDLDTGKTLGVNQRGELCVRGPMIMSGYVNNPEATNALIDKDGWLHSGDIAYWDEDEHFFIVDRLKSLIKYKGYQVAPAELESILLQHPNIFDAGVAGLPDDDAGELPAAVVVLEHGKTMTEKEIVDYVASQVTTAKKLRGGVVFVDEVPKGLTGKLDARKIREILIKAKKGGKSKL
As to the kind of experiment: biochemical. The settings on record: enzyme activity, 10 uM ATP; read-out: IC50 or SDR50 (mM) / FLuc E.
In the case of `Cc1csc(NC(=O)c2nc3c(o2)CCN(Cc2ccccc2F)CC3)n1` [NCGC00413264-01], the IC50 was 0.0128 mM.
The figure for `CCOc1ccc2nc(N3CCN(C(=O)c4ccco4)CC3)sc2c1` [NCGC00137033-01] is 0.0124 mM; for `Cc1nn(-c2ccc(C(C)C)cc2)c(C)c1[C@@H]1C=C[C@@H](NC(=O)CC2(CC(=O)O)CCCC2)C1` [NCGC00421413-01] it is over 0.03 mM; for `COCCN1CCOc2nc(-c3cccc(N(C)C)c3)ncc2C1=O` [NCGC00413458-01] it is 0.018 mM.
The value for `CC1(NC(=O)C2CC2)CN(Cc2nc(-c3ccccc3)cs2)C1` [NCGC00410376-01] was 0.0202 mM; that for `CCC(=O)N1CCN(c2nc3c(s2)CC(C(=O)O)CC3)CC1` (centres unmarked) [NCGC00432761-01] was 0.0111 mM; that for `C[S+](=O)([O-])CCn1ncc2cc(OCc3cccc(-c4ccccc4O)c3)ccc21` [NCGC00418051-01] was 0.0143 mM.
In the case of `O=C(O)C1CN(Cc2ccc(-c3nc4cc(Cc5ccccc5F)ccc4s3)c(F)c2)C1` [NCGC00379113-01], the IC50 is over 0.03 mM.
As for `COc1ccc(-c2cc3c(cn2)CN(Cc2cccnc2)CCN3)cc1OC` [NCGC00411110-01], the IC50 turned out to be 0.0143 mM.
Turning to `O=C(NCCc1ccccc1Cl)c1ccc2c(c1)nc1n2CCCCC1` [NCGC00133356-01], the IC50 amounted to 0.00111 mM.
With `O=C(O)c1ccc(-c2noc(-c3ccccc3F)n2)cc1` [NCGC00168096-02], the IC50 came to 0.000197 mM.
In the case of `COc1cccc(-c2nc3cc(NC(=O)c4ccc(C)c([N+](=O)[O-])c4)ccc3s2)c1` [NCGC00348177-01], the IC50 is over 0.03 mM.
On to `COc1ccc(OCc2cc(C(=O)N3C[C@H]4CC[C@H]3C4)n[nH]2)c(Cl)c1` [NCGC00428264-01], for which the IC50 is over 0.03 mM.
With `COc1cccc(CN2CCNc3cc(-c4ccnc(C)c4)ncc3C2)c1` [NCGC00411029-01], the IC50 came to 0.018 mM.
With `CSC(=S)Nc1ccc(-c2nc3ccc(C)cc3s2)cc1` [NCGC00640908-01], the IC50 was 0.00248 mM.
Regarding `CN1CCN(c2ccc(-c3cc4c(ccn4C)c(C(=O)NCCN4CCNC4=O)n3)cc2)CC1` [NCGC00411611-01], the IC50 amounted to 0.0124 mM.
The figure for `COc1ccc(OC)c(-c2nc3ccc(OC)cc3s2)c1` [NCGC00167604-01] is 0.00881 mM; for `Cc1ccc(-n2ncc3c(N4CCC(C)CC4)ncnc32)cc1C` [NCGC00139121-01] it is 0.00495 mM.
Regarding `O=C(Nc1n[nH]c2cc(-c3ccccc3)ccc12)C1CC1` [NCGC00242141-02], the IC50 is 0.0124 mM.
As to `Cc1cccc(C(=O)Nc2ccc(-c3nc4ccccc4s3)c(C)c2)c1` [NCGC00137838-01], the IC50 stood at 0.00989 mM.
The value for `Cc1ccc(NC(=O)Nc2ccc(C)n(CC(=O)NC(C)c3cccnc3)c2=O)cc1` (centres unmarked) [NCGC00430804-01] was 0.00157 mM.
With `O=C1CCc2cc(NC(=O)c3n[nH]c4ccccc34)ccc2N1` [NCGC00425473-01], the IC50 was 0.00313 mM.
`COc1ccc(CNC(=O)Nc2cccc(-c3ccc(N4CCCCC4)nn3)c2)cc1` [NCGC00427646-01]: the IC50 amounted to 0.000495 mM.
On to `O=C1CC2(CCN(CC3CC3)CC2)Oc2ccccc21` [NCGC00476832-01], for which the IC50 amounted to 0.018 mM.
The figure for `COc1cccc(C(=O)Nc2cccc(OCc3cc(=O)n4c5c(sc4n3)CCCC5)c2)c1` [NCGC00111495-01] is 0.00989 mM.
Regarding `Fc1ccc(Nc2ncc(-c3cccnc3)c3c2OCC3)cc1` [NCGC00412761-01], the IC50 was 0.0114 mM.
With `CCOc1ccccc1C(=O)Nc1cccc(-c2nc3ccccc3s2)c1` [NCGC00119161-01], the IC50 is 0.0111 mM.
The value for `O=C(Nc1ccc(-c2nc3ccccc3s2)c(O)c1)c1ccc(Br)cc1` [NCGC00098662-01] was over 0.03 mM.
Turning to `Cc1ccc(C(=O)Nc2ccc(-c3nc4ccccc4s3)c(O)c2)cc1` [NCGC00594710-01], the IC50 was over 0.03 mM.
On to `Fc1ccc(-n2ncc3c(N4CCCCCC4)ncnc32)cc1` [NCGC00138953-01], for which the IC50 was determined as 0.00124 mM.
The figure for `COc1ccc(-n2ncc3c(NC4CCCC4)ncnc32)cc1` [NCGC00139254-01] is 0.00176 mM; for `Cc1cn2c(=O)cc(COC(=O)c3ccccc3F)nc2s1` [NCGC00129878-01] it is 0.00624 mM; for `COc1ccc(C(=O)NCCn2cccc2-c2nc(-c3ccccc3)no2)cc1` [NCGC00445570-01] it is 0.00279 mM.
The figure for `O=C(Nc1ccc(F)cc1)c1cc2cccnn2n1` [NCGC00477081-01] is 0.018 mM.
Consider `CCSc1ccccc1C(=O)Nc1ccc(-c2nc3ccccc3s2)c(O)c1` [NCGC00134162-01], for which the IC50 was over 0.03 mM.
On to `O=C(Nc1cccc(-c2ccc(N3CCCC3)nn2)c1)c1c(F)cccc1F` [NCGC00427548-01], for which the IC50 was found to be 0.00881 mM.
With `COc1cccc(CC(=O)NCCn2ccn3nc(-c4ccc(C)c(C)c4)cc3c2=O)c1` [NCGC00457016-01], the IC50 is 0.0111 mM.
In the case of `Cc1ccc2nc(-c3ccc(N)cc3)sc2c1[S+](=O)([O-])O` [NCGC00091147-01], the IC50 came to 0.00248 mM.
The figure for `Clc1ccc(-c2nc(-c3ccccn3)no2)cc1Cl` [NCGC00075852-01] is 0.00556 mM; for `Cc1ccc(-c2nnc(C3CN(C(=O)c4sc(C)nc4C)CC34CCOCC4)o2)cc1` (centres unmarked) [NCGC00471668-01] it is over 0.03 mM.
Turning to `COc1cc(Cl)ccc1-c1ccc(COc2ccc3c(cnn3CCC(=O)O)c2)cc1` [NCGC00418159-01], the IC50 is 0.0202 mM.
For the compound `COc1cccc(CC(=O)NCCn2ccn3nc(-c4ccc(C)cc4C)cc3c2=O)c1` [NCGC00456960-01], the IC50 turned out to be 0.00881 mM.
Consider `N[S+](=O)([O-])c1cccc(N/C=C2\C(=O)Nc3ccccc32)c1` [NCGC00242167-02], for which the IC50 was over 0.03 mM.
The value for `COCC(=O)Nc1nc2c(s1)C[C@]1(C)CC[C@@H]3[C@H](OC(=O)[C@H]3C)[C@H]1[C@@H]2C` [NCGC00391224-01] was 0.00161 mM.
Regarding `CCCNc1cc(N2CCC(CCC(=O)O)CC2)ncn1` [NCGC00432805-01], the IC50 was found to be 0.00785 mM.
The value for `CC(C)(C)CC(=O)N1C[C@@H]2C[C@H](C1)c1ccc(NC(=O)Nc3cccc(F)c3)c(=O)n1C2` [NCGC00395227-01] was over 0.03 mM; that for `Cc1ccc(-c2cc3c(=O)n(CCNC(=O)c4cccc(Cl)c4)ccn3n2)c(C)c1` [NCGC00456978-01] was 0.00394 mM.
With `COc1ccc(C(=O)NCCC2CCN(C(=O)Nc3cc(F)cc(F)c3)CC2)cc1` [NCGC00425013-01], the IC50 was determined as 0.00989 mM.
On to `Fc1ccc(-c2cn3cc(Cc4ccccc4Cl)sc3n2)cc1` [NCGC00102130-01], for which the IC50 was found to be 0.000989 mM.
The figure for `O=C1c2cnc(-c3cccc(CO)c3)nc2OCCN1c1ccccc1` [NCGC00413559-01] is 0.0114 mM; for `COc1ccc(-n2nc3ccc(NC(=O)c4c(OC)cccc4OC)cc3n2)cc1` [NCGC00103168-01] it is over 0.03 mM.
With `CC(C)c1nc2c(c(-c3ccc(O)cc3)n1)CCN(Cc1ccccn1)CC2` [NCGC00480326-01], the IC50 is over 0.03 mM.
In the case of `CC1CCCCN1c1csc2ccc(F)cc2c1=O` (centres unmarked) [NCGC00132384-01], the IC50 is 0.00881 mM.
Consider `Oc1ccccc1CN1CCNc2cc(Nc3ccccc3)ncc2C1` [NCGC00411199-02], for which the IC50 came to 0.0124 mM.
`CC(C)CCNC(=O)c1ccc2c(c1)nc1n2CCCCC1` [NCGC00133608-01]: the IC50 stood at 0.00989 mM.
The value for `CCNc1cc(N2CCC(CCC(=O)Nc3ccc4c(c3)OCCO4)CC2)ncn1` [NCGC00470231-01] was 0.0124 mM; that for `COc1ccc(C(=O)Nc2cc(C)c(O)c(-c3nc4ccccc4s3)c2)cc1OC` [NCGC00103306-01] was 0.0014 mM.
On to `Cc1ccc(-c2cc(C(=O)O)n(C)c2)cc1` [NCGC00432669-01], for which the IC50 came out at 0.00989 mM.
The value for `CN1CCOc2nc(-c3cccc(OC(F)(F)F)c3)ncc2C1=O` [NCGC00413529-01] was 0.018 mM.
Consider `CNC(=O)c1cccc(-c2cnc(Nc3cccnc3OC)c3c2CCO3)c1` [NCGC00412753-01], for which the IC50 worked out at 0.00508 mM.
For `COc1ccc(-c2cc(N3CCCC(NC(=O)c4ccc(OC)c(OC)c4)C3)[nH]n2)cc1` (centres unmarked) [NCGC00437624-01], the IC50 was 0.00394 mM.
Take `CC(=O)NC1(C)CN(Cc2ccc(-c3ccccc3OCc3ccccc3)s2)C1` [NCGC00410438-01]: the IC50 was determined as 0.0227 mM.
The value for `OCc1ccnc(-c2ccc(-c3ccn[nH]3)cc2)c1` [NCGC00444969-01] was 0.00989 mM.
As to `O=C(COc1ccc(Cl)cc1)Nc1ccc(-c2nc3ccccc3s2)c(O)c1` [NCGC00098783-01], the IC50 was over 0.03 mM.
Regarding `O=C(NC[C@H]1Cn2cc(-c3ccc4c(c3)OCCCO4)nc2CO1)c1ccc2c(c1)OCO2` [NCGC00392108-01], the IC50 was 0.00989 mM.
Consider `Clc1cccc(-n2ncc3c(N4CCCCC4)ncnc32)c1` [NCGC00139126-01], for which the IC50 was found to be 0.000989 mM.
For the compound `COc1ccc(-c2cn3nc(N4CCCC(C(=O)NCc5ccccc5OC)C4)sc3n2)cc1` (centres unmarked) [NCGC00123654-01], the IC50 worked out at 0.0111 mM.
With `Oc1cccc(-c2cc3c(cn2)CN(Cc2cccnc2)CCN3)c1` [NCGC00411023-01], the IC50 is 0.0227 mM.
With `Cc1c(C(=O)NCc2cccc(Br)c2)oc2ccc3c(c12)C(=O)CC(C)(C)O3` [NCGC00113428-01], the IC50 was 0.0111 mM.
The value for `Cn1ccnc1CN1CCc2nc(C(=O)Nc3ccccc3)oc2CC1` [NCGC00413360-01] was 0.0202 mM; that for `Cc1nccn1CCN(C)c1ccc(-c2nc(COc3ccccc3)no2)cn1` [NCGC00428976-01] was 0.00989 mM.
The value for `CCOC(=O)c1cc(-c2ccccc2)nn1Cc1ccccc1` [NCGC00108381-01] was over 0.03 mM; that for `O=C1Cc2c(-c3cccc4ccccc34)n[nH]c2CN1CCOc1ccccc1` [NCGC00409142-01] was 0.018 mM; that for `O=C(O)c1ccccc1-c1noc(-c2ccccc2F)n1` [NCGC00183910-01] was 0.0157 mM.
Turning to `COc1ccc(CCNC(=O)C2CCCN(c3nc4c(C)cc(C)cc4s3)C2)cc1OC` (centres unmarked) [NCGC00113075-01], the IC50 is 0.00556 mM.
As for `COc1cc(NC(=O)Nc2cccc(-c3ccc(N4CCOCC4)nn3)c2)cc(OC)c1` [NCGC00427592-01], the IC50 came to 0.00176 mM.
`COc1ccc(CN2CC(COc3ccccc3)C3(C2)CN(c2ccccc2)C3)cc1O` (centres unmarked) [NCGC00415956-01]: the IC50 was over 0.03 mM.

For the origin of these results see PMC12064818, “A general assay platform to study protein pharmacology using ligand-dependent structural dynamics” (Nature Communications, 2025).
